Experimental findings from patent publication US10729675B2, “Gossypol isatin schiff base compounds with antitumor activities and a method of preparing the same” (SHAANXI UNIVERSITY OF SCIENCE AND TECHNOLOGY, priority 2018, dated 2020) are described below.

Structures are written as SMILES. A value given as a limit tells only on which side of the number the result lay.

The subject of data set [1] is human hepatoma cells (HepG2). The data set can be described thus: tumor cell proliferation inhibition test, MTT method, HepG2. To be noted: 48 hours treatment, read-out: Half Inhibitory Concentration IC50 HepG2. Format: cell-based. The protocol:
(§1) The compounds of the present invention were subjected to tumor cell proliferation inhibition test, and conventional MTT method was used.
(§2) Cell lines: human hepatoma cells (HepG2), human lung cancer cells (A-549), human gastric cancer cells (SGC-7901). The culture medium was DMEM+15% NBS+double antibody.
(§3) Sample solution preparation: after dissolving with DMSO (Merck), PBS (−) was added to obtain 100 μmol/L solution or homogeneous suspension. The solution was diluted with PBS (−) in DMSO to a final concentration of 0.1, 1, 10, 20, 40, 60, 80, 100 μmol/L.
(§4) Gossypol was used as control solution, prepared under the same condition.
(§5) Cell culture: adherent growth Tumor cells were cultured in 1640 medium containing 10% inactivated neonatal bovine serum and penicillin, streptomycin (1 million U/L), placed in carbon dioxide incubator at 37° C., 5% CO2, and saturated humidity. Cells were treated serially passaged 2-3 times. The first culture was washed with PBS 2 times, and digested with trypsin. Fresh culture medium was added evenly, cells were adjusted to a appropriate concentration and transferred into a new culture flask. Cell in an exponential phase were chosen for the tests.
(§6) Experimental Principle: Living cells mitochondria in the dehydrogenase can reduce yellow MTT to water-insoluble blue-violet product MT (MTT formazan), deposited in the cells. The amount of production is proportional to the number of living cells. […] DMSO can dissolve blue violet crystals, and the color depth is proportional to the amount contained, so the absorbance measured by the microplate reader can reflect the cell viability.
(§7) Methods: The exponential phase cells were digested and counted and seeded in 96-well plates at a density of 2×10^4/mL at 100 μl per well. After 24 hours of incubation, the cells to be tested were treated with 0.1, 1, 10, 20, 40, 60, 80, 100 μmol/L of the compounds. Each experimental group had 5 wells in each concentration, and the culture medium containing 0.4% DMSO was used as control. After 48 hours, the supernatant was discarded, and 100 μl of MTT ((2-(4,5-dimethyl-2-thiazolyl)-3,5-diphenyl-2H-tetrazole hydrobromide) (1 mg/mL) was added to each well. After another 4 hours, the supernatant was discarded, and 100 μl of DMSO was added to each well. After mixing, the absorbance was measured at 570 nm using a microplate reader. An IC50 calculation software was used to determine the half inhibitory concentration (IC50).

In data set [2] the test system is human lung cancer cells (A-549). The data set can be described thus: tumor cell proliferation inhibition test, MTT method, A-549. Format: cell-based. The settings on record: A549 cells, 48 hours treatment, read-out: Half Inhibitory Concentration IC50 A549. The protocol:
as §1, §2, §3, §4, §5, §6, §7
In general terms: Tetrazolium dyes change colour on reduction, which living cells bring about.

The subject of data set [3] is human gastric cancer cells (SGC-7901). The data set can be described thus: tumor cell proliferation inhibition test, MTT method, SGC-7901. Format: cell-based. The settings on record: SGC-7901 cells, 48 hours treatment, read-out: Half Inhibitory Concentration IC50 SGC-7901. The protocol:
as §1, §2, §3, §4, §5, §6, §7

The subject of data set [4] is HepG2, A-549, SGC-7901 tumor cells. The data set can be described thus: anti-tumor activity test, MTT method, summary over the three cell lines tested. The data set is classed as cell-based, human. The protocol:
as §1, §2, §3, §4
Cell culture: adherent growth Tumor cells were cultured in 1640 medium containing 10% inactivated neonatal bovine serum and penicillin, streptomycin (1 million U/L), placed in carbon dioxide incubator at 37° C., 5% CO2, and saturated humidity. Cells were treated serially passaged 2-3 times. The first culture was washed with PBS 2 times, and digested with trypsin. Fresh culture medium was added evenly, cells were adjusted to a appropriate concentration and transferred into a new culture flask. […]
Experimental Principle: Living cells mitochondria in the dehydrogenase can reduce yellow MTT to water-insoluble blue-violet product MT (MTT formazan), deposited in the cells. […] DMSO can dissolve blue violet crystals, and the color depth is proportional to the amount contained, so the absorbance measured by the microplate reader can reflect the cell viability.
Methods: The exponential phase cells were digested and counted and seeded in 96-well plates at a density of 2×10^4/mL at 100 μl per well. […] After 48 hours, the supernatant was discarded, and 100 μl of MTT ((2-(4,5-dimethyl-2-thiazolyl)-3,5-diphenyl-2H-tetrazole hydrobromide) (1 mg/mL) was added to each well. After another 4 hours, the supernatant was discarded, and 100 μl of DMSO was added to each well. After mixing, the absorbance was measured at 570 nm using a microplate reader. An IC50 calculation software was used to determine the half inhibitory concentration (IC50).

Usually melting point stands for the temperature of the solid-liquid transition. With `Cc1ccc2c(c1)/C(=N/N=C/c1c(O)c(O)c(C(C)C)c3cc(C)c(-c4c(C)cc5c(C(C)C)c(O)c(O)c(/C=N/N=C6/C(=O)Nc7ccc(C)cc76)c5c4O)c(O)c13)C(=O)N2` [Compound 1, (3Z,3′E)-3,3′-(((1E,1′E)-(1,1′,6,6′,7,7′-hexahydroxy-5,5′-diisopropyl-3,3′-dimethyl-[2,2′-binaphthalene]-8,8′-diyl)bis(methanylylidene))bis(hydrazine-2,1-diylidene))bis(5-methylindolin-2-one)], the melting point came out at 187.5 °C. Besides, in data set [1], the IC50 was more than 100 µM. Also, the IC50 in data set [2] was more than 100 µM. In data set [3], the IC50 is more than 100 µM.

Consider `Cc1cc2c(C(C)C)c(O)c(O)c(/C=N/N=C3\C(=O)Nc4ccc(Cl)cc43)c2c(O)c1-c1c(C)cc2c(C(C)C)c(O)c(O)c(/C=N/N=C3/C(=O)Nc4ccc(Cl)cc43)c2c1O` [Compound 2, (3Z,3′E)-3,3′-(((1E,1′E)-(1,1′,6,6′,7,7′-hexahydroxy-5,5′-diisopropyl-3,3′-dimethyl-[2,2′-binaphthalene]-8,8′-diyl)bis(methanylylidene))bis(hydrazine-2,1-diylidene))bis(5-chloroindolin-2-one)], for which the melting point was determined as 190.7 °C. Besides, in data set [1], the IC50 came out at 29.4 ± 2.1 µM. For the same compound, the IC50 in data set [2] was found to be 68.3 ± 2.15 µM. In data set [3], the IC50 was more than 100 µM.

`Cc1cc2c(C(C)C)c(O)c(O)c(/C=N/N=C3\C(=O)N(Cc4ccccc4)c4ccccc43)c2c(O)c1-c1c(C)cc2c(C(C)C)c(O)c(O)c(/C=N/N=C3/C(=O)N(Cc4ccccc4)c4ccccc43)c2c1O` [Compound 8, (3Z,3′E)-3,3′-(((1E, 1′E)-(1,1′,6,6′,7,7′-hexahydroxy-5,5′-diisopropyl-3,3′-dimethyl-[2,2′-binaphthalene]-8,8′-diyl)bis(methanylylidene))bis(hydrazine-2,1-diylidene))bis(1-benzylindolin-2-one)] gave a melting point of 219.9 °C. Moreover, the IC50 in data set [1] is more than 100 µM. Besides, the IC50 in data set [2] is more than 100 µM. In addition, the IC50 in data set [3] came to 88.8 ± 3.02 µM.

`Cc1cc2c(C(C)C)c(O)c(O)c(/C=N/N=C3\C(=O)N(C(C)C)c4ccc(Cl)cc43)c2c(O)c1-c1c(C)cc2c(C(C)C)c(O)c(O)c(/C=N/N=C3/C(=O)N(C(C)C)c4ccc(Cl)cc43)c2c1O` [Compound 6, (3Z,3′E)-3,3′-(((1E,1′E)-(1,1′,6,6′,7,7′-hexahydroxy-5,5′-diisopropyl-3,3′-dimethyl-[2,2′-binaphthalene]-8,8′-diyl)bis(methanylylidene))bis(hydrazine-2,1-diylidene))bis(5-chloro-1-isopropylindolin-2-one)] displayed a melting point of 216.3 °C. Besides, the IC50 in data set [1] was more than 100 µM. Also, in data set [2], the IC50 is 66.5 ± 2.53 µM. Moreover, in data set [3], the IC50 was more than 100 µM.

As for `CCN1C(=O)/C(=N\N=C\c2c(O)c(O)c(C(C)C)c3cc(C)c(-c4c(C)cc5c(C(C)C)c(O)c(O)c(/C=N/N=C6/C(=O)N(CC)c7ccc(Cl)cc76)c5c4O)c(O)c23)c2cc(Cl)ccc21` [Compound 5, (3Z,3′E)-3,3′-(((1E, 1′E)-(1,1′,6,6′,7,7′-hexahydroxy-5,5′-diisopropyl-3,3′-dimethyl-[2,2′-binaphthalene]-8,8′-diyl)bis(methanylylidene))bis(hydrazine-2,1-diylidene))bis(5-chloro-1-ethylindolin-2-one)], the values for the IC50 in data set [1], in data set [2] and in data set [3] were 8.92 ± 0.59 µM, 19.3 ± 1.62 µM and 13.7 ± 1.11 µM, respectively. In addition, the “antitumor activities (in words)” value in data set [4] is listed as “good activities”.

On to `Cc1cc2c(C(C)C)c(O)c(O)c(/C=N/N=C3\C(=O)N(C)c4ccccc43)c2c(O)c1-c1c(C)cc2c(C(C)C)c(O)c(O)c(/C=N/N=C3/C(=O)N(C)c4ccccc43)c2c1O` [Compound 3, (3Z,3′E)-3,3′-(((1E, 1′E)-(1,1′,6,6′,7,7′-hexahydroxy-5,5′-diisopropyl-3,3′-dimethyl-[2,2′-binaphthalene]-8,8′-diyl)bis(methanylylidene))bis(hydrazine-2,1-diylidene))bis(1-methylindolin-2-one)], for which the figures for the IC50 in data set [1], in data set [2] and in data set [3] were 8.67 ± 0.74 µM, 7.87 ± 0.91 µM and 16.6 ± 1.46 µM, respectively. For the same compound, the “antitumor activities (in words)” value in data set [4] is reported as “excellent antitumor activities”.

Turning to `Cc1cc2c(C(C)C)c(O)c(O)c(/C=N/N=C3\C(=O)N(Cc4ccccc4)c4ccc(Cl)cc43)c2c(O)c1-c1c(C)cc2c(C(C)C)c(O)c(O)c(/C=N/N=C3/C(=O)N(Cc4ccccc4)c4ccc(Cl)cc43)c2c1O` [Compound 7, (3Z,3′E)-3,3′-(((1E, 1′E)-(1,1′,6,6′,7,7′-hexahydroxy-5,5′-diisopropyl-3,3′-dimethyl-[2,2′-binaphthalene]-8,8′-diyl)bis(methanylylidene))bis(hydrazine-2,1-diylidene))bis(1-benzyl-5-chloroindolin-2-one)], the IC50 is 14.7 ± 1.12 µM in data set [1], 16.3 ± 1.21 µM in data set [2] and 12.5 ± 1.93 µM in data set [3]. For the same compound, the “antitumor activities (in words)” value in data set [4] is “good activities”.

`Cc1cc2c(C(C)C)c(O)c(O)c(/C=N/N=C3\C(=O)N(C)c4ccc(Cl)cc43)c2c(O)c1-c1c(C)cc2c(C(C)C)c(O)c(O)c(/C=N/N=C3/C(=O)N(C)c4ccc(Cl)cc43)c2c1O` [Compound 4, (3Z,3′E)-3,3′-(((1E, 1′E)-(1,1′,6,6′,7,7′-hexahydroxy-5,5′-diisopropyl-3,3′-dimethyl-[2,2′-binaphthalene]-8,8′-diyl)bis(methanylylidene))bis(hydrazine-2,1-diylidene))bis(5-chloro-1-methylindolin-2-one)] yielded a melting point of 204.3 °C. Also, the IC50 in data set [1] was more than 100 µM. Moreover, the IC50 in data set [2] was more than 100 µM. Besides, in data set [3], the IC50 is more than 100 µM.
